Laboratory results: ChEMBL document CHEMBL4507272 (2021)

Legend:
[1] = target: STE20-like serine/threonine-protein kinase (Homo sapiens) (UniProt Q9H2G2); conditions: Compound concentration 1000.0 nM
[2] = system: Epidermal growth factor receptor (Homo sapiens), P00533 [L858R,T790M]; conditions: Compound concentration 1000.0 nM
[3] = target: Cyclin-dependent kinase 5 (Homo sapiens) (UniProt Q00535); conditions: Compound concentration 1000.0 nM
[4] = target: Rhodopsin kinase GRK7 (Homo sapiens) (UniProt Q8WTQ7); conditions: Compound concentration 1000.0 nM
[5] = target: Protein kinase C theta type (Homo sapiens) (UniProt Q04759); conditions: Compound concentration 1000.0 nM
[6] = target: D(1B) dopamine receptor (Homo sapiens) (UniProt P21918); conditions: Compound concentration 10.0 uM
[7] = target: Vascular endothelial growth factor receptor 2 (Homo sapiens) (UniProt P35968); conditions: Compound concentration 1000.0 nM
[8] = target: ALK tyrosine kinase receptor (Homo sapiens) (UniProt Q9UM73); conditions: Compound concentration 1000.0 nM
[9] = target: Serine/threonine-protein kinase STK11 (Homo sapiens) (UniProt Q15831); conditions: Compound concentration 1000.0 nM
[10] = target: 5-hydroxytryptamine receptor 6 (Homo sapiens) (UniProt P50406); conditions: Compound concentration 10.0 uM
[11] = target: Wee1-like protein kinase (Homo sapiens) (UniProt P30291); conditions: Compound concentration 1000.0 nM
[12] = system: Receptor-type tyrosine-protein kinase FLT3 (Homo sapiens), P36888 [N841I]; conditions: Compound concentration 1000.0 nM
[13] = target: D(2) dopamine receptor (Homo sapiens) (UniProt P14416); conditions: Compound concentration 10.0 uM
[14] = target: Testis-specific serine/threonine-protein kinase 3 (Homo sapiens) (UniProt Q96PN8); conditions: Compound concentration 1000.0 nM
[15] = target: Rho-associated protein kinase 2 (Homo sapiens) (UniProt O75116); conditions: Compound concentration 1000.0 nM
[16] = target: Serine/threonine-protein kinase DCLK3 (Homo sapiens) (UniProt Q9C098); conditions: Compound concentration 1000.0 nM
[17] = system: Phosphatidylinositol 4,5-bisphosphate 3-kinase catalytic subunit alpha isoform (Homo sapiens), P42336 [E545A]; conditions: Compound concentration 1000.0 nM
[18] = target: RAC-gamma serine/threonine-protein kinase (Homo sapiens) (UniProt Q9Y243); conditions: Compound concentration 1000.0 nM
[19] = target: 5-hydroxytryptamine receptor 1A (Homo sapiens) (UniProt P08908); conditions: Compound concentration 10.0 uM
[20] = system: Phosphatidylinositol 4,5-bisphosphate 3-kinase catalytic subunit alpha isoform (Homo sapiens), P42336 [M1043I]; conditions: Compound concentration 1000.0 nM
[21] = target: Ribosomal protein S6 kinase alpha-6 (Homo sapiens) (UniProt Q9UK32); conditions: Compound concentration 1000.0 nM
[22] = target: Ribosomal protein S6 kinase beta-1 (Homo sapiens) (UniProt P23443); conditions: Compound concentration 1000.0 nM
[23] = target: Serine/threonine-protein kinase PLK4 (Homo sapiens) (UniProt O00444); conditions: Compound concentration 1000.0 nM
[24] = system: Hepatocyte growth factor receptor (Homo sapiens), P08581 [Y1235D]; conditions: Compound concentration 1000.0 nM
[25] = target: Activin receptor type-2B (Homo sapiens) (UniProt Q13705); conditions: Compound concentration 1000.0 nM
[26] = target: Phosphatidylinositol 5-phosphate 4-kinase type-2 beta (Homo sapiens) (UniProt P78356); conditions: Compound concentration 1000.0 nM
[27] = target: Serine/threonine-protein kinase 36 (Homo sapiens) (UniProt Q9NRP7); conditions: Compound concentration 1000.0 nM
[28] = system: Epidermal growth factor receptor (Homo sapiens), P00533 [L858R]; conditions: Compound concentration 1000.0 nM
[29] = target: Serine/threonine-protein kinase 24 (Homo sapiens) (UniProt Q9Y6E0); conditions: Compound concentration 1000.0 nM
[30] = system: Epidermal growth factor receptor (Homo sapiens), P00533 [UNDEFINED MUTATION]; conditions: Compound concentration 1000.0 nM
[31] = target: Receptor-type tyrosine-protein kinase FLT3 (Homo sapiens) (UniProt P36888); conditions: Compound concentration 1000.0 nM
[32] = target: Serine/threonine-protein kinase 3 (Homo sapiens) (UniProt Q13188); conditions: Compound concentration 1000.0 nM
[33] = target: Serine/threonine-protein kinase PAK 2 (Homo sapiens) (UniProt Q13177); conditions: Compound concentration 1000.0 nM
[34] = target: 5'-AMP-activated protein kinase catalytic subunit alpha-1 (Homo sapiens) (UniProt Q13131); conditions: Compound concentration 1000.0 nM
[35] = target: Insulin receptor-related protein (Homo sapiens) (UniProt P14616); conditions: Compound concentration 1000.0 nM
[36] = target: Ribosomal protein S6 kinase alpha-1 (Homo sapiens) (UniProt Q15418); conditions: Compound concentration 1000.0 nM
[37] = target: Cyclin-dependent kinase 7 (Homo sapiens) (UniProt P50613); conditions: Compound concentration 1000.0 nM
[38] = target: Muscarinic acetylcholine receptor M5 (Homo sapiens) (UniProt P08912); conditions: Compound concentration 10.0 uM
[39] = target: Serine/threonine-protein kinase Nek4 (Homo sapiens) (UniProt P51957); conditions: Compound concentration 1000.0 nM
[40] = target: Maternal embryonic leucine zipper kinase (Homo sapiens) (UniProt Q14680); conditions: Compound concentration 1000.0 nM
[41] = target: Beta-1 adrenergic receptor (Homo sapiens, UniProt P08588); test: GPCRScan assay: inhibition of Beta1; set-up: radioligand conc. used [nm] 0.1 – 0.2, parental cells CHO Flp-In
[42] = target: Serine/threonine-protein kinase Nek3 (Homo sapiens) (UniProt P51956); conditions: Compound concentration 1000.0 nM
[43] = target: Serine/threonine-protein kinase WNK4 (Homo sapiens) (UniProt Q96J92); conditions: Compound concentration 1000.0 nM
[44] = target: Serine/threonine-protein kinase WNK1 (Homo sapiens) (UniProt Q9H4A3); conditions: Compound concentration 1000.0 nM
[45] = target: Epidermal growth factor receptor (Homo sapiens) (UniProt P00533); conditions: Compound concentration 1000.0 nM

Beta-1 adrenergic receptor, sequence (P08588 whole entry): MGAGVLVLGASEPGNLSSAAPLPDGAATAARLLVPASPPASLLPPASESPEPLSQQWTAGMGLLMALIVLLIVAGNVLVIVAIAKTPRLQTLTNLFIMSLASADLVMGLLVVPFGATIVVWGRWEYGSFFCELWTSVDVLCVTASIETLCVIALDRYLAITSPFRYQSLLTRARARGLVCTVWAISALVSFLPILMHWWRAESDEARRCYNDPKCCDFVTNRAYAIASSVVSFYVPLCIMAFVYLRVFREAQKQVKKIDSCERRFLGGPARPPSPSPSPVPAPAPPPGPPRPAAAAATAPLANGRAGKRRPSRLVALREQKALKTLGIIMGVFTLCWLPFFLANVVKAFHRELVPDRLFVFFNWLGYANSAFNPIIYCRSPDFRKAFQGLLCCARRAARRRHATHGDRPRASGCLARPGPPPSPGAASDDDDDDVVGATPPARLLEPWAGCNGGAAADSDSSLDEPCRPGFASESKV
Phosphatidylinositol 4,5-bisphosphate 3-kinase catalytic subunit alpha isoform (Homo sapiens), P42336 [E545A], sequence (P42336 whole entry E545A, canonical isoform): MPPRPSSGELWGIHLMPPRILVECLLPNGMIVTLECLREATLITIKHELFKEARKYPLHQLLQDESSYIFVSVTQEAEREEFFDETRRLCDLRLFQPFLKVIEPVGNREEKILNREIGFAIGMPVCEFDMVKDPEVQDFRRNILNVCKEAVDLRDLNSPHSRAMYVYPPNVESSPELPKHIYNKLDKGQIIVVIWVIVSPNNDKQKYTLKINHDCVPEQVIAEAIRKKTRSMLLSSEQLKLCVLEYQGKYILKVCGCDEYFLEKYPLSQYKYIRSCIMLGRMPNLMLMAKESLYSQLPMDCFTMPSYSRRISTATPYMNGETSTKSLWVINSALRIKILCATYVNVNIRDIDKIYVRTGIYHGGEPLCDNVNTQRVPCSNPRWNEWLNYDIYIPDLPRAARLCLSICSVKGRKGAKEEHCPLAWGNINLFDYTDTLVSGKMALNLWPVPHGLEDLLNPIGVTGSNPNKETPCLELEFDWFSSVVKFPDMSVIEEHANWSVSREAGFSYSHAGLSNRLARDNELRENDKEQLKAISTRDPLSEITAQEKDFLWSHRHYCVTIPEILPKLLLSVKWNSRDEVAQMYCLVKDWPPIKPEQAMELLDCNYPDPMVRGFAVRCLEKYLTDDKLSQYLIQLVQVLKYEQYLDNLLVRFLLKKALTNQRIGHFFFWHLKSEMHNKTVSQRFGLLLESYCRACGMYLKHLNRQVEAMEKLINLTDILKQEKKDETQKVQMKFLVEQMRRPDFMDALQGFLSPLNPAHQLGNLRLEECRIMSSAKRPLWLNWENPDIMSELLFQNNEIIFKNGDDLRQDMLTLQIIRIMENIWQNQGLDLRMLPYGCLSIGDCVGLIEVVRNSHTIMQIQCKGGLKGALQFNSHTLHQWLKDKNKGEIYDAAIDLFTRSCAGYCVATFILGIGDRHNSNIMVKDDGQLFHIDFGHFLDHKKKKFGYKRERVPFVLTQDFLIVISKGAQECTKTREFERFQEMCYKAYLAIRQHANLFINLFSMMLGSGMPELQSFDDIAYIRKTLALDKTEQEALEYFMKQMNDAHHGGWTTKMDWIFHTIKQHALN
Phosphatidylinositol 4,5-bisphosphate 3-kinase catalytic subunit alpha isoform (Homo sapiens), P42336 [M1043I], sequence (P42336 whole entry M1043I, canonical isoform): as the sequence (P42336 whole entry E545A, canonical isoform) above, with A545E, M1043I counted along it
RAC-gamma serine/threonine-protein kinase (Homo sapiens), sequence (Q9Y243 whole entry): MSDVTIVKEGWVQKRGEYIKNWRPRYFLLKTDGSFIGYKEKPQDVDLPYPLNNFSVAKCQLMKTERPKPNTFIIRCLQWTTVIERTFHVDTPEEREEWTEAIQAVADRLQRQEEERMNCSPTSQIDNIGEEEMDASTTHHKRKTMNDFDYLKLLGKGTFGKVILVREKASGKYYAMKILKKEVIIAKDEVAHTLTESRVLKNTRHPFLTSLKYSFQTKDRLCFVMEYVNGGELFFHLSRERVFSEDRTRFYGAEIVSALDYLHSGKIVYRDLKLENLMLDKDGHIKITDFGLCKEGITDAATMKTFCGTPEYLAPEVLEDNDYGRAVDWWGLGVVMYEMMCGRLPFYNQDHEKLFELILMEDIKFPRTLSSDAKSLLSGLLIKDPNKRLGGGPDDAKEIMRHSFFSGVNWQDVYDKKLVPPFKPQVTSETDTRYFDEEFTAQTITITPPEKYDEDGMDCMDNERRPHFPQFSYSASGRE
Serine/threonine-protein kinase STK11 (Homo sapiens), sequence (Q15831 whole entry): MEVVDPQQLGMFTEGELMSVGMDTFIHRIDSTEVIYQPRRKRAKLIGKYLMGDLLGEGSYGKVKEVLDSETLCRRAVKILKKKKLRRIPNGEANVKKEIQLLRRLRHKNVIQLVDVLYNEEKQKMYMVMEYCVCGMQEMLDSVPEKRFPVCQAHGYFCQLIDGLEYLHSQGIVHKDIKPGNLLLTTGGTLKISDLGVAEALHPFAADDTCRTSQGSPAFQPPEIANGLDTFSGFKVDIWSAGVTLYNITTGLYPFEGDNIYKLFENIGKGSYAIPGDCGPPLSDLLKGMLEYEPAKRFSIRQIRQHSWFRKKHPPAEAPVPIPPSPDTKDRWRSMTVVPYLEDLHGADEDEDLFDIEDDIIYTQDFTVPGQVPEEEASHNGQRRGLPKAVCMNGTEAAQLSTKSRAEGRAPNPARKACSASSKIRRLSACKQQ
Serine/threonine-protein kinase PLK4 (Homo sapiens), sequence (O00444 whole entry): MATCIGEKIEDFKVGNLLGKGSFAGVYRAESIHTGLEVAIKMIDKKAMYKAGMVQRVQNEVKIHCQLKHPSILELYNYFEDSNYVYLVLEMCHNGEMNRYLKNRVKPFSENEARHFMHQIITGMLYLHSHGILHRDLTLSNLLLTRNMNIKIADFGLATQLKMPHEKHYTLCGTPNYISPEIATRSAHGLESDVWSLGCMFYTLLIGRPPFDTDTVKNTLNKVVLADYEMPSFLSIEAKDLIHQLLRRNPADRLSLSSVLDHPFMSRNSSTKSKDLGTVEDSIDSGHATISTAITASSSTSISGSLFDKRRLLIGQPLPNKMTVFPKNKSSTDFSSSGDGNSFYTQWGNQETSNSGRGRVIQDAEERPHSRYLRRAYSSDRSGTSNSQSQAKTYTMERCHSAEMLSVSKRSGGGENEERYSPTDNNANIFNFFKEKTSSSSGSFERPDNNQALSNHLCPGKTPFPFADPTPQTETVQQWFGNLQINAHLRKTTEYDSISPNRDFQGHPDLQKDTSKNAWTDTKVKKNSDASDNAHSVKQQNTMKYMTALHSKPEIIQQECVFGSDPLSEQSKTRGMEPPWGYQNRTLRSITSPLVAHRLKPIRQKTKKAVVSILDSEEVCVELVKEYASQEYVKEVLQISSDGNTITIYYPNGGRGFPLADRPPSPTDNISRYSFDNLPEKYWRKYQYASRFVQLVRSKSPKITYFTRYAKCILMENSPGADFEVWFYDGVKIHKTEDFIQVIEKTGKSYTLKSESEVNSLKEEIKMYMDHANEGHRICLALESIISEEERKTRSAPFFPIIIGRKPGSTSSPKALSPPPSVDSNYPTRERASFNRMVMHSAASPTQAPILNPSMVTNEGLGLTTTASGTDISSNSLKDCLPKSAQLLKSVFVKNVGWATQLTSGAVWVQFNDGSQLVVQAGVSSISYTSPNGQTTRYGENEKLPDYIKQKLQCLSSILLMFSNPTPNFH
Rho-associated protein kinase 2 (Homo sapiens), sequence (O75116 whole entry, looked up): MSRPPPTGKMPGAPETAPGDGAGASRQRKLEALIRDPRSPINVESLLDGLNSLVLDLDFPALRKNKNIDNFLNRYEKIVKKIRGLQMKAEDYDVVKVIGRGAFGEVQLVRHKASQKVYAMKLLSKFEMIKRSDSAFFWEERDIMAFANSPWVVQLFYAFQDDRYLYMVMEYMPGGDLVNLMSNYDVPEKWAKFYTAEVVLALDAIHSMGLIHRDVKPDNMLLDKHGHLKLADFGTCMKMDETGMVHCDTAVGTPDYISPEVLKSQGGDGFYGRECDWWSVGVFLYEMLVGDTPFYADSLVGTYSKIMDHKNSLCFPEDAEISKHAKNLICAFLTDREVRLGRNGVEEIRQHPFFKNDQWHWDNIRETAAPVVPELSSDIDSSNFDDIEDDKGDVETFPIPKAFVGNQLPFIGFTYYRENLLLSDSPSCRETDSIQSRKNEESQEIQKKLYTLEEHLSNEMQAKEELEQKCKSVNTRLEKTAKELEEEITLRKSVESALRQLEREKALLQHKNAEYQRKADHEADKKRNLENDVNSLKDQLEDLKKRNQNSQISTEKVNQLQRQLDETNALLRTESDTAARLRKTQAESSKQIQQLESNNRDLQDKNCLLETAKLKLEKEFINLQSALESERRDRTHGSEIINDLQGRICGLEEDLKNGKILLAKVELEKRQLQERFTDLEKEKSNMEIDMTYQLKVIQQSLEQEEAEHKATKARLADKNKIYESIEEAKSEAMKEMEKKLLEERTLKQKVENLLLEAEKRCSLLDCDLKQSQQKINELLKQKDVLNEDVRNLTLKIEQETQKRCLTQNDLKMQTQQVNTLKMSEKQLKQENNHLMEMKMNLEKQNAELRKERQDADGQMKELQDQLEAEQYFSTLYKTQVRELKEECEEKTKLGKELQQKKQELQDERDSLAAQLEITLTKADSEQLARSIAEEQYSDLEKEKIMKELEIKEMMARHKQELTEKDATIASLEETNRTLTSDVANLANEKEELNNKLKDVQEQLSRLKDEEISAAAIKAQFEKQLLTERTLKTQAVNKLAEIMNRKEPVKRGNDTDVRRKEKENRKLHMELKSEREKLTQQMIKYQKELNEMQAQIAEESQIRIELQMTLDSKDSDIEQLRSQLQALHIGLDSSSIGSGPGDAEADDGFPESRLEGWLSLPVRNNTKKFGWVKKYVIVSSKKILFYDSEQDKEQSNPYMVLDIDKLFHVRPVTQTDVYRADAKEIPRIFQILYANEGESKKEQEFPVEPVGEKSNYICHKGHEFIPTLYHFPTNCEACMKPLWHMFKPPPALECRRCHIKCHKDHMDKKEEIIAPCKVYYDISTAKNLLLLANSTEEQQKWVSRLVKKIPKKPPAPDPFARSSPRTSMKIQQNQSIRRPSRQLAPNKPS

Compound: CC(=O)C1=C(C)N(c2cccc(C(F)(F)F)c2)C(=O)N[C@@H]1c1ccc(C#N)nc1 [BAY-678]
- residual activity [1]: 98.4%
- residual activity [2]: 100%
- residual activity [3]: 100%
- residual activity [4]: 100%
- residual activity [5]: 83.3%
- inhibition [6]: 0.739%
- residual activity [7]: 84%
- residual activity [8]: 100%
- residual activity [9]: 72.8%
- inhibition [10]: -6.02%
- residual activity [11]: 100%
- residual activity [12]: 73.8%
- inhibition [13]: 0.569%
- residual activity [14]: 96.2%
- residual activity [15]: 86.1%
- residual activity [16]: 53.9%
- residual activity [17]: 75.6%
- residual activity [18]: 90.6%
- inhibition [19]: 50%
- residual activity [20]: 100%
- residual activity [21]: 87.7%
- residual activity [22]: 93.8%
- residual activity [23]: 82.7%
- residual activity [24]: 100%
- residual activity [25]: 87.5%
- residual activity [26]: 52.8%
- residual activity [27]: 100%
- residual activity [28]: 80.8%
- residual activity [29]: 95.4%
- residual activity [30]: 100%
- residual activity [31]: 100%
- residual activity [32]: 93.1%
- residual activity [33]: 98.2%
- residual activity [34]: 85.4%
- residual activity [35]: 99.6%
- residual activity [36]: 100%
- residual activity [37]: 90.6%
- inhibition [38]: -6.78%
- residual activity [39]: 93.9%
- residual activity [40]: 88.2%
- Ki ([41]; read-out: Ki): 5.45 µM
- Ki ([41]; read-out: pKi (converted)): 5.01 µM
- residual activity [42]: 72%
- residual activity [43]: 100%
- residual activity [44]: 89%
- residual activity [45]: 78.2%
